Assay results taken from ChEMBL document CHEMBL5247625, “Discovery and characterization of novel potent BCR-ABL degraders by conjugating allosteric inhibitor” (Eur J Med Chem, 2022).
Active and inactive are the calls of the source. No cut-off for these calls is given here.

What was measured:
[1] = biological target: T1, Protein cereblon/Tyrosine-protein kinase ABL1/Breakpoint cluster region protein (Homo sapiens, UniProt P00519+P11274+Q96SW2); assay: Protac activity at CRBN/BCR-ABL in human K562 cells assessed as increase in BCR-ABL degradation at 5 nM by Western blotting analysis; type: cell-based
T1 sequence (P00519 whole entry, looked up): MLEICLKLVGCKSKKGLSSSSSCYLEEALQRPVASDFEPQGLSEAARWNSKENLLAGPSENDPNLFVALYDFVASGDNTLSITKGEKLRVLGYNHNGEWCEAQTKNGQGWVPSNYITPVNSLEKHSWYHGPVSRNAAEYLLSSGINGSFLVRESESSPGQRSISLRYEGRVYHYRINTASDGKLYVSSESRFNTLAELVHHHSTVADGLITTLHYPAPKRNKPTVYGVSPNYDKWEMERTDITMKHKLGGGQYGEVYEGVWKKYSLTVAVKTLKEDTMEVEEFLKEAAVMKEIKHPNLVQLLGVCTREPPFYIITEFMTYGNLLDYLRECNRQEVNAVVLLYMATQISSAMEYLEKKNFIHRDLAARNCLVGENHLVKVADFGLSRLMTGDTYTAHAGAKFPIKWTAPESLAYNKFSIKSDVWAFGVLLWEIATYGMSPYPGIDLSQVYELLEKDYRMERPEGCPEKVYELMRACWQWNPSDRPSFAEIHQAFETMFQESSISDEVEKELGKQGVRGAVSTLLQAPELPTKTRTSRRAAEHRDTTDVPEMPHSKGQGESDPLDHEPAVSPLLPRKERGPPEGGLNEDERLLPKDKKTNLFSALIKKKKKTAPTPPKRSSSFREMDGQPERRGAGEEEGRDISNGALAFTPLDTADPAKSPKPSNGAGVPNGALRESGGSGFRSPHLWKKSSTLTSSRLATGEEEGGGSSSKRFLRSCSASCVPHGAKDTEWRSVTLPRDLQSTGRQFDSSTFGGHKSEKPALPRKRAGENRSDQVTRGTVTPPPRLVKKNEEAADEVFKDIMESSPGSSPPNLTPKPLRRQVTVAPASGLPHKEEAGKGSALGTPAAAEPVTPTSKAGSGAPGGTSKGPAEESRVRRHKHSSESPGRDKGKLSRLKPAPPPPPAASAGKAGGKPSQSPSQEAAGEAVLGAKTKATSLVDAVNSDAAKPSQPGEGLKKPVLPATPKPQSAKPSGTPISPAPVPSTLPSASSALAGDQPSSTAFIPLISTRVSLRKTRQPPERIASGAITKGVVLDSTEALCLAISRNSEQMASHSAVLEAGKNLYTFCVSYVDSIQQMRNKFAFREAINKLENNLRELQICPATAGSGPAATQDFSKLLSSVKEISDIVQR
T1 sequence (P11274 whole entry, looked up): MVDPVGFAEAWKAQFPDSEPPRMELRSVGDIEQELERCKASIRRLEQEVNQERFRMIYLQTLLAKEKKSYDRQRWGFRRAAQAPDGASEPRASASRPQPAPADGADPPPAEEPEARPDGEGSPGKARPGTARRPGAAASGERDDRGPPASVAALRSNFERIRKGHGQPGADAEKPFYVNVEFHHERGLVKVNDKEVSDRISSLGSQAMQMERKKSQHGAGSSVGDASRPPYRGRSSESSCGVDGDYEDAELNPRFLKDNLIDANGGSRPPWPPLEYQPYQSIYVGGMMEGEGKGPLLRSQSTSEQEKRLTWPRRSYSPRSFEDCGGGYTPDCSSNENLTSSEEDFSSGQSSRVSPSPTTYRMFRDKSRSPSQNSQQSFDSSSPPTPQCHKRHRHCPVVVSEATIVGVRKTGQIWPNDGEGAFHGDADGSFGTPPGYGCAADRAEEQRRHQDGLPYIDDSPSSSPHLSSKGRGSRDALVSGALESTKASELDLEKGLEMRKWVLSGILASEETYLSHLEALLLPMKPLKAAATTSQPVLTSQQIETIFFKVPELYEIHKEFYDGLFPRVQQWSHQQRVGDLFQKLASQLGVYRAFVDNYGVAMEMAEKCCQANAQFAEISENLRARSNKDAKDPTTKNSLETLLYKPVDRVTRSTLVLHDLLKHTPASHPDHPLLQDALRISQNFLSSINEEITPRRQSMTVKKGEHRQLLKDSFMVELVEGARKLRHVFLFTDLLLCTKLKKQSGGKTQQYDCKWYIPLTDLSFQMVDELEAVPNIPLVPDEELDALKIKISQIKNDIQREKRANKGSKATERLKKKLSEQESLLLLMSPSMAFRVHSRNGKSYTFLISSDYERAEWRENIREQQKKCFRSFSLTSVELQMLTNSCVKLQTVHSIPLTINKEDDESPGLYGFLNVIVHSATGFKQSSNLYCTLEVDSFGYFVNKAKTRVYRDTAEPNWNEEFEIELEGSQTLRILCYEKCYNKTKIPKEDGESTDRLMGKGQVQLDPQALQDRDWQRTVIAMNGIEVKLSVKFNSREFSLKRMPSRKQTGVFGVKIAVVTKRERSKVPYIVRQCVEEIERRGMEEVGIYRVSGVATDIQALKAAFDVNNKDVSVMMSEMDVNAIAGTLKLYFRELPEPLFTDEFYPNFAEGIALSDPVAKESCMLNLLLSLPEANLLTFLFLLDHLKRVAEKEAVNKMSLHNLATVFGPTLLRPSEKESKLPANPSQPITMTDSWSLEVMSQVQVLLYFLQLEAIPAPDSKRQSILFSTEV
T1 sequence (Q96SW2 whole entry, looked up): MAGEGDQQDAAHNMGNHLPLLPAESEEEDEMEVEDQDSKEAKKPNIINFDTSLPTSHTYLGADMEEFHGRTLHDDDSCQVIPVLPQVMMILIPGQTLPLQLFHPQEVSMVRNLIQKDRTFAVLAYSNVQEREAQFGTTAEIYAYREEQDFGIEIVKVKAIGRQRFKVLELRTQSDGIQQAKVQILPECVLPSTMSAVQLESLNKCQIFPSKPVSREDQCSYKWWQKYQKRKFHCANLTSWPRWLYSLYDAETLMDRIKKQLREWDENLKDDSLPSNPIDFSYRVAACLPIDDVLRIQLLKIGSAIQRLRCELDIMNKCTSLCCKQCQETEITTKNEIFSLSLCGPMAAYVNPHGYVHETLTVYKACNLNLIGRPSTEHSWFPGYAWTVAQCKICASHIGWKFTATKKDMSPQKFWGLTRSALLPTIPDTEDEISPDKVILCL

[2] = biological target: T1, Protein cereblon/Tyrosine-protein kinase ABL1/Breakpoint cluster region protein; assay: Protac activity at CRBN/BCR-ABL in human K562 cells assessed as increase in BCR-ABL degradation at 100 nM by Western blotting analysis; type: cell-based
K562 = assay: cells; settings: Homo sapiens, K562, 48 h
Description: Antiproliferative activity against human K562 cells assessed as inhibition of cell growth incubated for 2 days by CCK8 assay

[3] = biological target: T1, Protein cereblon/Tyrosine-protein kinase ABL1/Breakpoint cluster region protein; assay: Protac activity at CRBN/BCR-ABL in human K562 cells assessed as increase in BCR-ABL degradation at 50 nM by Western blotting analysis; type: cell-based
[4] = biological target: T2, Bcr/Abl fusion protein (Homo sapiens) (UniProt P00519+P11274); assay: Inhibition of BCR-ABL phosphorylation at Tyr245 residue in human K562 cells at 0.3 to 100 nM incubated for 16 hrs by Western blotting analysis; type: cell-based; settings: dose 0.3-100 nM
T2 sequence (P00519 whole entry, looked up, the tested form may be a part): as the sequence (P00519 whole entry, looked up) above
T2 sequence (P11274 whole entry, looked up, the tested form may be a part): as the sequence (P11274 whole entry, looked up) above

[5] = biological target: T3, Signal transducer and activator of transcription 5A (Homo sapiens) (UniProt P42229); assay: Inhibition of STAT5 phosphorylation at Tyr694 residue in human K562 cells at 0.3 to 100 nM incubated for 16 hrs by Western blotting analysis; type: cell-based; settings: dose 0.3-100 nM
T3 sequence (whole entry): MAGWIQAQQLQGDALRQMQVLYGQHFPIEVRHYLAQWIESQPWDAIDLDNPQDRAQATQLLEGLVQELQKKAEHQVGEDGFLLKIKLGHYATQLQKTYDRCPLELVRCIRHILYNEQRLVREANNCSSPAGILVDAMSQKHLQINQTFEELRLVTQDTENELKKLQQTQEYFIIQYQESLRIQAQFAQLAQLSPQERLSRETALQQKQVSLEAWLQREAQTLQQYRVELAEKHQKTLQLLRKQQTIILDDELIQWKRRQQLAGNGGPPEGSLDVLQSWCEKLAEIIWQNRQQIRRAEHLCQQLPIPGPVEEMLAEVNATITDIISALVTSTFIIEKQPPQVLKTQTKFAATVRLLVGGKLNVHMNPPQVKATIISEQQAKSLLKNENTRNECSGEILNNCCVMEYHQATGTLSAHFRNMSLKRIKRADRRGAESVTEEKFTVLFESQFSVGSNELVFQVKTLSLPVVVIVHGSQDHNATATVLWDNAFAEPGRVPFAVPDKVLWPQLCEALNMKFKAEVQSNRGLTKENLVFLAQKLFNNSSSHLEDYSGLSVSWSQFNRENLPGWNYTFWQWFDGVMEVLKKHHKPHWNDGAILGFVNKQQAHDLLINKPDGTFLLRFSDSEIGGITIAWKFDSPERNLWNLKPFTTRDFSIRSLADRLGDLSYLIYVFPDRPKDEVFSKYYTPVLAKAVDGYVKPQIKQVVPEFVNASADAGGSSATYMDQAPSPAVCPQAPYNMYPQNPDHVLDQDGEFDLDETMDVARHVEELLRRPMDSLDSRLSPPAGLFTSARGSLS

[6] = biological target: Crk-like protein (Homo sapiens) (UniProt P46109); assay: Inhibition of CRKL phosphorylation at Tyr207 residue in human K562 cells at 0.3 to 100 nM incubated for 16 hrs by Western blotting analysis; type: cell-based; settings: dose 0.3-100 nM
Sequence of Crk-like protein (Homo sapiens) (P46109 whole entry): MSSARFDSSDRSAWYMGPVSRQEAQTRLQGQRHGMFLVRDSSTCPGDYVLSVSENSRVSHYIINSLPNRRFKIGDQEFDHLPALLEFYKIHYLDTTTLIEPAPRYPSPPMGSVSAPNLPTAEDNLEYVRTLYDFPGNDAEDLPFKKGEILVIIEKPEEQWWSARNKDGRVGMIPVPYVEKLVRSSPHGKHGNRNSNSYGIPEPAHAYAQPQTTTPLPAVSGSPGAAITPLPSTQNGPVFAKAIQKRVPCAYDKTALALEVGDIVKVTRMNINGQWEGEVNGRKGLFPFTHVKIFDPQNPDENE

[7] = biological target: T1, Protein cereblon/Tyrosine-protein kinase ABL1/Breakpoint cluster region protein; assay: Protac activity at CRBN/BCR-ABL in human K562 cells assessed as increase in BCR-ABL degradation at 100 nM incubated for 6 hrs followed by compound washout measured upto 96 hrs by Western blotting analysis; type: cell-based
[8] = biological target: T2, Bcr/Abl fusion protein (Homo sapiens); assay: Inhibition of BCR-ABL phosphorylation at Tyr245 residue in human K562 cells at 100 nM incubated for 6 hrs followed by compound washout measured upto 96 hrs by Western blotting analysis; type: cell-based
[9] = biological target: T3, Signal transducer and activator of transcription 5A (Homo sapiens); assay: Inhibition of STAT5 phosphorylation at Tyr694 residue in human K562 cells at 100 nM incubated for 6 hrs followed by compound washout measured upto 96 hrs by Western blotting analysis; type: cell-based
[10] = biological target: Crk-like protein (Homo sapiens) (UniProt P46109); assay: Inhibition of CRKL phosphorylation at Tyr207 residue in human K562 cells at 100 nM incubated for 6 hrs followed by compound washout measured upto 96 hrs by Western blotting analysis; type: cell-based

| Structure (SMILES) | Activity [1] [%] | Activity [2] [%] | IC50 (K562) [µM] | Activity [3] [%] | other results |
| --- | --- | --- | --- | --- | --- |
| O=C1CCC(N2Cc3c(NCCCC(=O)N4CCN(c5ncc(C(=O)Nc6ccc(OC(F)(F)Cl)cc6)cc5-c5ccn[nH]5)CC4)cccc3C2=O)C(=O)N1 (stereo unspecified) |  |  | 0.666 | -2.33 |  |
| O=C1CCC(N2Cc3c(SCCCCCCN4CCN(c5ncc(C(=O)Nc6ccc(OC(F)(F)Cl)cc6)cc5-c5ccn[nH]5)CC4)cccc3C2=O)C(=O)N1 (stereo unspecified) | 24.6 | 40.8 | 0.292 |  |  |
| O=C1CCC(N2C(=O)c3cccc(NCC(=O)N4CCN(c5ncc(C(=O)Nc6ccc(OC(F)(F)Cl)cc6)cc5-c5ccn[nH]5)CC4)c3C2=O)C(=O)N1 (stereo unspecified) |  |  | 0.572 | 1.82 |  |
| O=C1CCC(N2C(=O)c3cccc(SCCCC(=O)N4CCN(c5ncc(C(=O)Nc6ccc(OC(F)(F)Cl)cc6)cc5-c5ccn[nH]5)CC4)c3C2=O)C(=O)N1 (stereo unspecified) |  |  | 0.528 | 9.57 |  |
| O=C1CCC(N2Cc3c(SCCCCCCNc4ncc(C(=O)Nc5ccc(OC(F)(F)Cl)cc5)cc4-c4ccn[nH]4)cccc3C2=O)C(=O)N1 (stereo unspecified) | -5.46 | -8.74 | 1.96 |  |  |
| O=C1CCC(N2Cc3c(C#CCCCCN4CCN(c5ncc(C(=O)Nc6ccc(OC(F)(F)Cl)cc6)cc5-c5ccn[nH]5)CC4)cccc3C2=O)C(=O)N1 (stereo unspecified) | 32.8 | 89.1 | 0.0409 |  |  |
| O=C1CCC(N2Cc3c(OCCCCN4CCN(c5ncc(C(=O)Nc6ccc(OC(F)(F)Cl)cc6)cc5-c5ccn[nH]5)CC4)cccc3C2=O)C(=O)N1 (stereo unspecified) | 30.6 | 89.2 | 0.0672 |  |  |
| O=C1CCC(N2Cc3c(SCCCN4CCN(c5ncc(C(=O)Nc6ccc(OC(F)(F)Cl)cc6)cc5-c5ccn[nH]5)CC4)cccc3C2=O)C(=O)N1 (stereo unspecified) | 48.4 | 40 | 0.137 |  |  |
| O=C1CCC(N2Cc3c(C#CCCCCCCN4CCN(C5CCN(c6ncc(C(=O)Nc7ccc(OC(F)(F)Cl)cc7)cc6-c6ccn[nH]6)CC5)CC4)cccc3C2=O)C(=O)N1 (stereo unspecified) | 38.4 | 29.9 | 0.124 |  |  |
| Nc1cccc2c1CN(C1CCC(=O)NC1=O)C2=O (stereo unspecified) [LENALIDOMIDE] |  |  | > 10 |  |  |
| O=C1CCC(N2Cc3c(SCCCCN4CCN(c5ncc(C(=O)Nc6ccc(OC(F)(F)Cl)cc6)cc5-c5ccn[nH]5)CC4)cccc3C2=O)C(=O)N1 (stereo unspecified) | 40.8 | 87.8 | 0.0303 |  |  |
| O=C1CCC(N2C(=O)c3cccc(SCCCCN4CCN(C5CCN(c6ncc(C(=O)Nc7ccc(OC(F)(F)Cl)cc7)cc6-c6ccn[nH]6)CC5)CC4)c3C2=O)C(=O)N1 (stereo unspecified) | 38.2 | 70.9 | 0.17 |  |  |
| O=C1CCC(N2Cc3c(SCCOCC(=O)N4CCN(c5ncc(C(=O)Nc6ccc(OC(F)(F)Cl)cc6)cc5-c5ccn[nH]5)CC4)cccc3C2=O)C(=O)N1 (stereo unspecified) |  |  | 0.154 | 10.2 |  |
| O=C1CCC(N2C(=O)c3cccc(NCCCCCCC(=O)N4CCN(c5ncc(C(=O)Nc6ccc(OC(F)(F)Cl)cc6)cc5-c5ccn[nH]5)CC4)c3C2=O)C(=O)N1 (stereo unspecified) |  |  | 0.381 | 1 |  |
| O=C1CCC(N2C(=O)c3cccc(C#CCCCC(=O)N4CCN(c5ncc(C(=O)Nc6ccc(OC(F)(F)Cl)cc6)cc5-c5ccn[nH]5)CC4)c3C2=O)C(=O)N1 (stereo unspecified) |  |  | 0.278 | 9.65 |  |
| CN1C(=O)CCC(N2Cc3c(SCCCCCCN4CCN(C5CCN(c6ncc(C(=O)Nc7ccc(OC(F)(F)Cl)cc7)cc6-c6ccn[nH]6)CC5)CC4)cccc3C2=O)C1=O (stereo unspecified) |  |  |  |  | Activity [4]: Active; Activity [5]: Active; Activity [6]: Active; Activity [7]: inactive; inhibition [8]: inactive; inhibition [9]: inactive; inhibition [10]: inactive |
| O=C1CCC(N2C(=O)c3cccc(NCCCCC(=O)N4CCN(c5ncc(C(=O)Nc6ccc(OC(F)(F)Cl)cc6)cc5-c5ccn[nH]5)CC4)c3C2=O)C(=O)N1 (stereo unspecified) |  |  | 0.172 | 1.94 |  |

Now from value to compound, other results behind:

| Activity [1] [%] | Activity [2] [%] | IC50 (K562) [µM] | Activity [3] [%] | Structure (SMILES) | other results |
| --- | --- | --- | --- | --- | --- |
| 38.9 | 86.1 | 0.0347 |  | O=C1CCC(N2Cc3c(SCCCCN4CCN(C5CCN(c6ncc(C(=O)Nc7ccc(OC(F)(F)Cl)cc7)cc6-c6ccn[nH]6)CC5)CC4)cccc3C2=O)C(=O)N1 (stereo unspecified) |  |
| 55.5 | 49.6 | 0.0485 |  | O=C1CCC(N2Cc3c(SCCCN4CCN(C5CCN(c6ncc(C(=O)Nc7ccc(OC(F)(F)Cl)cc7)cc6-c6ccn[nH]6)CC5)CC4)cccc3C2=O)C(=O)N1 (stereo unspecified) |  |
|  |  | > 10 |  | Nc1cccc2c1C(=O)N(C1CCC(=O)NC1=O)C2=O (stereo unspecified) [POMALIDOMIDE] |  |
| 24.3 | 37.1 | 0.0231 |  | O=C1CCC(N2Cc3c(SCCCCCN4CCN(C5CCN(c6ncc(C(=O)Nc7ccc(OC(F)(F)Cl)cc7)cc6-c6ccn[nH]6)CC5)CC4)cccc3C2=O)C(=O)N1 (stereo unspecified) |  |
| 28.8 | 67.9 | 0.066 |  | O=C1CCC(N2Cc3c(OCCCCCCN4CCN(C5CCN(c6ncc(C(=O)Nc7ccc(OC(F)(F)Cl)cc7)cc6-c6ccn[nH]6)CC5)CC4)cccc3C2=O)C(=O)N1 (stereo unspecified) |  |
| 5.76 | 41.6 | 0.322 |  | O=C1CCC(N2Cc3c(SCCCCNC4CCN(c5ncc(C(=O)Nc6ccc(OC(F)(F)Cl)cc6)cc5-c5ccn[nH]5)CC4)cccc3C2=O)C(=O)N1 (stereo unspecified) |  |
| 29.4 | 70.9 | 0.228 |  | O=C1CCC(N2Cc3c(SCCCCCCNC4CCN(c5ncc(C(=O)Nc6ccc(OC(F)(F)Cl)cc6)cc5-c5ccn[nH]5)CC4)cccc3C2=O)C(=O)N1 (stereo unspecified) |  |
|  |  | 1.1 | -1.5 | O=C1CCC(N2C(=O)c3cccc(NCCOCCOCCC(=O)N4CCN(c5ncc(C(=O)Nc6ccc(OC(F)(F)Cl)cc6)cc5-c5ccn[nH]5)CC4)c3C2=O)C(=O)N1 (stereo unspecified) |  |
| -3.56 | -9.23 | 0.928 |  | O=C1CCC(N2Cc3c(SCCCCNc4ncc(C(=O)Nc5ccc(OC(F)(F)Cl)cc5)cc4-c4ccn[nH]4)cccc3C2=O)C(=O)N1 (stereo unspecified) |  |
| -3.96 | 29.7 | 0.978 |  | O=C1CCC(N2Cc3c(SCCCCCNC4CCN(c5ncc(C(=O)Nc6ccc(OC(F)(F)Cl)cc6)cc5-c5ccn[nH]5)CC4)cccc3C2=O)C(=O)N1 (stereo unspecified) |  |
|  |  | 0.186 | 1.67 | O=C1CCC(N2C(=O)c3cccc(NCCCCCC(=O)N4CCN(c5ncc(C(=O)Nc6ccc(OC(F)(F)Cl)cc6)cc5-c5ccn[nH]5)CC4)c3C2=O)C(=O)N1 (stereo unspecified) |  |
|  |  | 2.12 | -12.3 | O=C1CCC(N2Cc3c(OCCCC(=O)N4CCN(c5ncc(C(=O)Nc6ccc(OC(F)(F)Cl)cc6)cc5-c5ccn[nH]5)CC4)cccc3C2=O)C(=O)N1 (stereo unspecified) |  |
| 6.85 | 29.6 | 0.558 |  | O=C1CCC(N2Cc3c(SCCCCCNc4ncc(C(=O)Nc5ccc(OC(F)(F)Cl)cc5)cc4-c4ccn[nH]4)cccc3C2=O)C(=O)N1 (stereo unspecified) |  |
| 21.9 | 64.4 | 0.047 |  | O=C1CCC(N2Cc3c(SCCCCCCCN4CCN(C5CCN(c6ncc(C(=O)Nc7ccc(OC(F)(F)Cl)cc7)cc6-c6ccn[nH]6)CC5)CC4)cccc3C2=O)C(=O)N1 (stereo unspecified) |  |
|  |  | 1.12 | -1.35 | O=C1CCC(N2C(=O)c3cccc(OCCCC(=O)N4CCN(c5ncc(C(=O)Nc6ccc(OC(F)(F)Cl)cc6)cc5-c5ccn[nH]5)CC4)c3C2=O)C(=O)N1 (stereo unspecified) |  |
|  |  | 0.13 | 9.05 | O=C1CCC(N2C(=O)c3cccc(NCCCC(=O)N4CCN(c5ncc(C(=O)Nc6ccc(OC(F)(F)Cl)cc6)cc5-c5ccn[nH]5)CC4)c3C2=O)C(=O)N1 (stereo unspecified) |  |
|  |  | 0.886 | 4.94 | O=C1CCC(N2C(=O)c3cccc(NCCOCCOCCOCCOCCC(=O)N4CCN(c5ncc(C(=O)Nc6ccc(OC(F)(F)Cl)cc6)cc5-c5ccn[nH]5)CC4)c3C2=O)C(=O)N1 (stereo unspecified) |  |
|  |  | 0.106 | 35.1 | O=C1CCC(N2Cc3c(SCCCC(=O)N4CCN(c5ncc(C(=O)Nc6ccc(OC(F)(F)Cl)cc6)cc5-c5ccn[nH]5)CC4)cccc3C2=O)C(=O)N1 (stereo unspecified) |  |
